Values of other authors in patent publication US20240316119A1, “COMPOSITIONS AND METHODS FOR SUPPRESSING PATHOGENIC ORGANISMS” (VEDANTA BIOSCIENCES, INC., priority 2021, published 2024).

Tested on: Klebsiella pneumoniae and Citrobacter rodentium
Settings: reported in Stacy et al. Cell. 2021 184(3):615-627

## NCCS(=O)(=O)O [taurine, 2-aminoethanesulfonic acid]
  effect of supplying exogenous taurine alone on microbiota function and resistance to infection: sufficient to induce this alteration in microbiota function and enhance resistance
